# From US12208130B2, “Treatment of women affected with polycystic ovary syndrome” (INSTITUT NATIONAL DE LA SANTE ET DE LA RECHERCHE MEDICALE …, priority 2017, dated 2025)
# Where a SMILES comes first, the peptide text is derived from it. [ ]: non-standard residue; d: D form. dPhe(4-Cl) = N[C@H](Cc1ccc(Cl)cc1)C(=O)O; d2Nal = N[C@H](Cc1ccc2ccccc2c1)C(=O)O; dCit = NC(=O)NCCC[C@@H](N)C(=O)O; d3Pal = N[C@H](Cc1cccnc1)C(=O)O
# Test system: PAMH mice
# Assay: Postnatal GnRH antagonist treatment in PAMH mice: estrous cyclicity, ovaries, hormone levels
# Assay type: in vivo, mouse
# Procedure: FIG. 6A-6G. Postnatal GnRH antagonist treatment of PAMH mice restores the PCOS-like neuroendocrine phenotype. (FIG. 6A) Schematic of experimental design whereby vaginal cytology (estrous cyclicity) in PAMH adult (P60-P90, n=5) was analyzed for 12 days before and after postnatal intraperitoneal (i.p.) injections with 0.5 mg Kg^−1 cetrorelix acetate (PAMH+GnRH antag). Injections were administered every 2 days over 12 days and, on the first diestrus at the end of the treatment, trunk blood was collected for hormonal analysis. (FIG. 6B) Representation of estrous cyclicity of a female PAMH mouse before postnatal GnRH antagonist treatment (no treatment) and during postnatal GnRH antagonist treatment (PAMH+GnRH antag). Days of treatment are denoted by arrows. (FIG. 6C) Quantitative analysis of the % of completed estrous cycles in control (prenatal PBS-treated, n=19), PAMH (prenatal AMH-treated, n=19), and PAMH mice postnatally treated with GnRH antagonist (PAMH+GnRH antag, n=5). The horizontal line in each scatter plot corresponds to the median value. The vertical line represents the 25th-75th percentile range. Comparisons between treatment groups were performed using Kruskal-Wallis test followed by Dunn's post hoc analysis test (control vs PAMH ***P<0.0001; control vs PAMH+GnRH antag, P>0.999; PAMH vs PAMH+GnRH antag, *P=0.015). (FIG. 6D) Scatter plot representing the percentage (%) of time spent in each estrous cycle. The horizontal line in each scatter plot corresponds to the median value. The vertical line represents the 25th-75th percentile range. The percentage (%) of time spent in each estrous cycle was quantified in control, PAMH and PAMH+GnRH antag animals groups, as described above. Comparisons between treatment groups were performed using Kruskal-Wallis test followed by Dunn's post hoc analysis test (M/D: control vs PAMH ***P<0.0001; control vs PAMH+GnRH antag, P>0.999; PAMH vs PAMH+GnRH antag, *P=0.0051; E: control vs PAMH ***P<0.0001; control vs PAMH+GnRH antag, P>0.999; PAMH vs PAMH+GnRH antag, *P=0.014; P: control vs PAMH ***P<0.0001; control vs PAMH+GnRH antag, P>0.999; PAMH vs PAMH+GnRH antag, **P=0.0007). In FIG. 6D, (●): control; light grey point: PAMH; “○”: PAMH+GnRH antagonist. (FIG. 6E) Representative photomicrographs of ovaries from adult (P60-P90) control, PAMH and PAMH+GnRH antag mice. Ovary sections (5 μm thick) were stained with haematoxylin-eosin. (FIG. 6F) Mean T levels were measured in diestrus adult control (n=7), PAMH (n=5) and PAMH+GnRH antag (n=5) animals. Comparisons between treatment groups were performed using One-way ANOVA and Tukey's multiple comparisons post-hoc test, F (2,14)=29.24, ***P<0.0001. (FIG. 6G) Mean LH levels were measured in diestrus adult control (n=9), PAMH (n=10) and PAMH+GnRH antag (n=5) animals. Comparisons between treatment groups were performed using One-way ANOVA and Tukey's multiple comparisons post-hoc test, F(2,21)=65.78, ***P<0.0001. Abbreviations: M/D, Metestrus/Diestrus; E, Estrus; P, Proestrus; A, atretic follicles; CL, corpora lutea; AF, antral follcicles.
# (FIG. 10A) Schematic of experimental design whereby vaginal cytology (estrous cyclicity) in PAMH adult mice (P90, n=6) was analyzed during 3 months, before and after postnatal intraperitoneal (i.p.) injections with 0.05, 0.5 and 5 mg/Kg Cetrorelix acetate. The Y axis refers to the different stages of the estrous cycle: Metaestrus/Diestrus (M/D), Estrus (E) and Proestrus (P). The X axis represents the time-course of the experiments (days). Animals were injected i.p. every second day, for 12 days, with Cetrorelix acetate at the dose of 0.05 and 0.5 mg/Kg, and every day with Cetrorelix acetate at the dose of 5 mg/Kg. Tail-blood samples were collected for LH measurements twice before the beginning of the treatments, and at day 2 and 6 of each treatment as well as 4 days after the last injection (no treatment), that followed each administration period. […]
# [1] = 0.5 mg/Kg i.p. every second day for 12 days
structure (smiles),measurement,setting,value
"CC(=O)N[C@H](Cc1ccc2ccccc2c1)C(=O)N[C@H](Cc1ccc(Cl)cc1)C(=O)N[C@H](Cc1cccnc1)C(=O)N[C@@H](CO)C(=O)N[C@@H](Cc1ccc(O)cc1)C(=O)N[C@H](CCCNC(N)=O)C(=O)N[C@@H](CC(C)C)C(=O)N[C@@H](CCCNC(=N)N)C(=O)N1CCC[C@H]1C(=O)N[C@H](C)C(N)=O [Cetrorelix acetate, Ac-D-2Nal-D-Phe(4-Cl)-D-3Pal-Ser-Tyr-D-Cit-Leu-Arg-Pro-D-Ala-NH2] (Ac-[d2Nal][dPhe(4-Cl)][d3Pal]SY[dCit]LRP[dA]-NH2)",serum LH levels of PAMH mice,0.05 mg/Kg i.p. every second day,significantly more elevated than in Control animals
same,LH pulsatility in PAMH animals,"0.5 mg/Kg every second day, diestrus, end of treatment",normalized the LH pulsatility
same,LH levels of PAMH mice,[1],normalized
same,estrous cyclicity of PAMH mice,[1],restored
same,T levels of PAMH mice,"0.5 mg/Kg i.p. every second day for 12 days, diestrus",normalized
same,ovarian morphology of PAMH mice,0.5 mg/Kg i.p. every two days for 12 days,restored
same,ovulation in PAMH animals,0.5 mg/Kg injected every 48 hours,restored ovulation
same,serum LH levels of PAMH mice,5 mg/Kg i.p. daily,significantly suppressed
same,reversibility of effects on LH secretion,"after discontinuation of treatment, independently of dose",reversible a few days after discontinuation of treatment
